The text below walks through data of US20240299400A1, “Transcription Factor GLI1 Inhibitors and Uses Thereof” (University of Connecticut, priority 2023, published 2024).

In one assay the test system is PANC-1 (pancreatic). As to the kind of experiment: MTS anti-proliferative assay in PANC-1 cells. It is filed as cell-based. The settings on record: Homo sapiens, PANC-1; Table 8, 48 h, mean ± SEM. As to the method: (§1) Cell viability was assessed by MTS proliferation assay kit (Promega) per manufacturer's protocol. Briefly, 2×10^4 cells were plated in a 96-well plate in 100 μL growth medium to make the cell population at ˜80% confluence. After 24 h, 1 μL drug solution was added to each well. DMSO was used as vehicle compound. After 48 h incubation (37° C., 5% CO2), 20 μL of freshly prepared 3-(4,5-dimethylthiazol-2-yl)-5-(3-carboxymethoxyphenyl)-2-(4-sulfophenyl)-2H-tetrazolium (MTS)/phenazine methosulfate (PMS) solution was added to each well, and the plate was returned to the incubator for 1 h. Absorbance at 490 nm was recorded, and the result was analyzed by GraphPad Prism 5. GI50 values represent mean±SEM for at least two separate experiments performed in triplicate.
A general note: Formazan colour is commonly taken as a measure of viable cells.

A further assay concerns ASZ001 cells. As to the kind of experiment: MTS anti-proliferative assay in ASZ001 cells. It is filed as cell-based, murine. The settings on record: Mus musculus, ASZ001; Table 5, 48 h, Ave ± SEM.
Assay [1] has as its system GLI1 mRNA expression. As to the kind of experiment: RT-qPCR GLI1 mRNA expression in ASZ001 BCC cells. In kind it is cell-based, mouse. The settings on record: Mus musculus. (Quantitative PCR measures a nucleic acid by following its amplification.)
Assay [2] has as its system GLI1 mRNA expression. As to the kind of experiment: RT-qPCR GLI1 mRNA expression in OHCs-stimulated C3H10T1/2 MEFs. It is filed as cell-based, mouse. The settings on record: for IC50: Mus musculus. As to the method: (§2) ASZ001 and Sufu-KO cells were seeded in 96-well plates (10,000/well, 100 μL) and incubated overnight under growth conditions. On the second day, ‘growth’ media was removed and replaced by ‘assay’ media (100 μL). On the third day, cells were treated with a serial dilution of drugs or DMSO for 48 h. mRNA expression was determined through Taqman Fast Cells-to-CT Kit (#4399003) per the manufacturer's instructions. In brief, cells were washed with chilled PBS, then mixed with lysis solution containing DNase I and incubated at RT for 5 min. Stop solution was then added to quench the lysis reagents. cDNA was then synthesized through a BioRad MyCycler following addition of reverse transcriptase. Finally, the cDNA was amplified through an ABI 7500 system following addition of Taqman Fast Universal PCR Master Mix and Taqman Gene Expression Primer. Relative gene expression levels were computed by the ΔΔCt method. Values represent mRNA expression relative to DMSO control (set at 1.0). Data were analyzed using GraphPad Prism, and IC50 values are the mean±SEM for at least two separate experiments performed in triplicate. Primers used are as follows: mouse ActB (Mm00607939_s1); mouse GLI1 (Mm00494645_ml); mouse Gli2 (Mm01293117_ml); mouse Ptch1 (Mm00436026_ml); mouse Hhip (Mm00469580_ml).
C3H10T1/2 MEFs were seeded in 24-well plates (50,000/well, 500 μL). Following 24 h incubation, the ‘growth’ media was removed and replaced with ‘assay’ media (500 μL). On the third day, cells were treated with either DMSO, OHCs, or OHCs+drugs. Following a 24 h incubation, gene expression analysis was carried out following identical protocols as described above.

A further assay concerns DAOY (MB). As to the kind of experiment: MTS anti-proliferative assay in DAOY cells. In kind it is cell-based. The following applies: Homo sapiens, Daoy; Table 8, 48 h, mean ± SEM. How it is done: as §1
A further assay deals with GLI1 protein levels. As to the kind of experiment: Western blot GLI1 protein expression in ASZ001 cells. In kind it is cell-based, murine. The settings on record: 25 μM. How it is done: (§3) ASZ001 cells were plated as described above and treated with drugs or vehicle control. Following incubation, cells were washed with chilled PBS and lysed with RIPA buffer containing […] PMSF protease inhibitor (Thermo Scientific #26978). Supernatant was collected following 15 min centrifugation at 12,000 rpm and 4° C. Protein concentrations from cell extracts were determined through the BCA kit (Pierce #23228) per the manufacturer's instructions. Proteins from either cell lysate or cell-free biochemical assay were then loaded on 12% SDS-PAGE. Following electrophoresis, proteins were transferred onto nitrocellulose membrane at 100 V for 120 min at 4° C. On a clean tray with constant gentle shaking, the membrane was sequentially submerged in 5% BSA for 1 h, and incubated with the primary antibody indicated overnight at 4° C. After washes with TBST, the appropriate secondary antibody was added to the tray for a 2 h incubation at RT. Chemiluminescent detection on film was visualized using ECL reagents (BioRad #1705060) and subsequently quantitated using Image J (http://imagej.nih.gov). Primary antibodies were used at 1:2000 dilution and are as follows: GLI1 (#MA5-32553); Gli2 (#PA5-79314); β-Actin (#PA1-16889). Secondary antibody (Goat anti-Rabbit, #32460) was used at a 1:5000 dilution. All antibodies were purchased from Invitrogen.
For orientation: Immunoblotting shows a protein as a band on a membrane.

The target in the next assay is T1, GLI1-ZFD (Homo sapiens, UniProt P08151).
T1 construct: GLI1-ZFD Expression and Purification; made in house
T1 sequence (P08151 234-388 limits assumed): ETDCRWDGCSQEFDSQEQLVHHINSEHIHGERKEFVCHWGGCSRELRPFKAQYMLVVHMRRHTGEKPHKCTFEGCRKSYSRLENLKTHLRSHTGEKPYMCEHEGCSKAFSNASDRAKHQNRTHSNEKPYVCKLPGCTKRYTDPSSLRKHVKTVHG
Kind of assay: Microscale thermophoresis (MST) binding to GLI1-ZFD. How it is done:
The protein expression and purification experiments followed the previous reported procedures [C. A. Maschinot, et al., Synthesis and evaluation of third generation vitamin D3 analogues as inhibitors of hedgehog signaling. Euro. J. Med. Chem. 162 (2019) 495-506].
GLI1 protein labeling was performed through the Monolith Protein Labeling Kit RED-NHS 2nd Generation (Nanotemper #MO-LO11) per the manufacturer's instructions. Briefly, GLI1 (100 μg, 1 mg/mL) underwent buffer exchange to remove incompatible ingredients like Tris or DTT. Proteins in the Labeling Buffer were incubated with freshly prepared dye (˜3-fold excess of dye) for 30 min at RT in the dark. Unreacted ‘free’ dye was removed by a gel-filtration column. Protein concentration and degree-of-labeling were calculated by measuring absorption at 280 nm and 650 nm. For each assay, 200 nM GLI1 in MST Buffer was mixed with compound dilution in DMSO (DMSO<5%, v/v). The mixture was then loaded to a capillary and the thermophoresis was subsequently determined through Monolith NT.115 station. Results were analyzed by MO.Affinity Analysis software and visualized by Graphpad Prism. MST Buffer: 50 mM HEPES, pH 8.3, 100 mM NaCl.

Another assay relates to Gli2 mRNA expression. Kind of assay: RT-qPCR Gli2 mRNA expression in ASZ001 cells. It is filed as cell-based, mouse. The settings on record: 10 μM. As to the method:
as §2

The subject of a further assay is GLI2 protein expression. Kind of assay: Western blot GLI2 protein expression in ASZ001 cells. In kind it is cell-based, murine. The following applies: 25 μM. How it is done:
as §3

For the next assay, the system named is Ptch1 mRNA expression. Kind of assay: RT-qPCR Ptch1 mRNA expression in ASZ001 cells. In kind it is cell-based, mouse. The settings on record: FIG. 4A. How it is done: as §2
The test system of assay [3] is GLI1 mRNA expression. As to the kind of experiment: RT-qPCR GLI1 mRNA expression in Sufu-KO MEFs. In kind it is cell-based, mouse. The settings on record: Mus musculus.

One may read the GI50 as the concentration at which growth is held to half of that of the control. A lower GI50 goes with more potent growth inhibition. The term Kd denotes the constant that tells how readily two partners part at equilibrium. On to `CCN(CC)c1ccc(C(Nc2ccccn2)c2ccc3ccc(C)nc3c2O)cc1` (stereo not shown) [Compound 1], for which the concentration for 50% growth inhibition (GI50) with PANC-1 (pancreatic) was found to be 21.1 ± 4.2 µM; with ASZ001 cells it was 13800 ± 3400 nM; in the assay with DAOY (MB), 14.1 ± 2 µM. Also, the IC50 was determined as 1300 ± 700 nM in the assay with GLI1 mRNA expression [1] (ASZ001, Table 2, mean ± SEM, read-out: GLI1 mRNA expression, IC50 ASZ001); 1300 ± 700 nM in the assay on GLI1 mRNA expression [1] (ASZ001, Table 4, racemates and enantiomers, mean ± SEM, read-out: RT-qPCR, IC50 ASZ001); 1300 ± 700 nM in the assay with GLI1 mRNA expression [1] (ASZ001, Table 5, GLI1 mRNA, Ave ± SEM, read-out: RT-qPCR, IC50 ASZ001); 260 ± 160 nM in the assay with GLI1 mRNA expression [2] (C3H 10T1/2, Table 2, mean ± SEM, read-out: GLI1 mRNA expression, IC50 C3H10T1/2); 260 ± 160 nM in the assay on GLI1 mRNA expression [2] (C3H 10T1/2, Table 4, racemates and enantiomers, mean ± SEM, read-out: RT-qPCR, IC50 C3H10T1/2); 1500 ± 500 nM with GLI1 mRNA expression [3] (Table 2, mean ± SEM, read-out: GLI1 mRNA expression, IC50 Sufu-KO). The IC50 in the assay on GLI1 mRNA expression [3] (Table 4, racemates and enantiomers, mean ± SEM, read-out: RT-qPCR, IC50 Sufu-KO) was found to be 1500 ± 500 nM; with GLI1 mRNA expression [3] (Table 5, GLI1 mRNA, Ave ± SEM, read-out: RT-qPCR, IC50 Sufu-KO), 1500 ± 500 nM. In the assay on GLI1 mRNA expression [2] (C3H10T1/2 MEFs, 10 μM, relative to Hh-agonist OHCs (set as 100%), mean ± SEM), the “% Gli1 Expression” value is 5.9 ± 0.5%. The “GLI1 protein levels (in words)” value in the assay on GLI1 protein levels is on record as “significantly down-regulated”. In addition, the Kd at GLI1-ZFD (Table 2, mean ± SEM) came to 13400 ± 4000 nM; at GLI1-ZFD (Table 4, mean ± SEM), 13400 ± 4000 nM; at GLI1-ZFD (Table 5, Ave ± SEM), 13800 ± 3400 nM. For the same compound, the “inhibition of Gli2 mRNA expression, rank (in words)” value with Gli2 mRNA expression is on record as “most active”. Moreover, in the assay with GLI2 protein expression, the “GLI2 protein expression (in words)” value is on record as “significantly suppressed”. Besides, in the assay on Ptch1 mRNA expression, the “Ptch1 mRNA expression (in words)” value is listed as “significantly down-regulated”.
